Reference: US9513294B2, “Megastokes amino-triazolyl-BODIPY compounds and applications to live neuron staining and human serum albumin FA1 drug site probing” (National University of Singapore, priority 2012, dated 2016)

Experiments:
[1] = Absorbance and fluorescence emission spectra (SpectraMax M2); format: physicochemical; conditions: for λmax Absorp. / λmax Emission: MK library, Table 5; for λmax Abs. (nm) / λmax Em. (nm): MKAC compound library; for λmax Abs. (nm): absorbance maximum; for λmax Em. (nm): fluorescence emission maximum
In short: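 Absorbance and emission maxima measured on a SpectraMax M2 spectrophotometer, which also gave quantum yield data; analysis in GraphPrism.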

[2] = Quantum yield measurements versus Acridine Yellow in EtOH; format: physicochemical; conditions: for φ (quantum yield): MK library, Table 5, excitation 460 nm; for φ (%): MKAC compound library, quantum yield
In short: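 Fluorescence quantum yield is relative to Acridine Yellow in EtOH (Φ 0.47), with excitation at 460 nm. Integrated emission at 510–700 nm was corrected for absorbance at the excitation wavelength and for solvent refractive index.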

Structure (SMILES)	λmax Absorp. [1] [nm]	λmax Emission [1] [nm]	φ (quantum yield) [2] [%]	λmax Abs. (nm) [1] [nm]	λmax Em. (nm) [1] [nm]	φ (%) [2] [%]
CCCC(C)c1cn(-c2ccc3n2[B-](F)(F)[N+]2=C(NCc4cc(F)cc(F)c4)C=CC2=C3c2ccc(N)cc2)nn1 (centres unmarked) [MK412-3]	476	562	0.63			
Nc1ccc(C2=C3C=CC(NCc4cc(F)cc(F)c4)=[N+]3[B-](F)(F)n3c2ccc3-n2cc(C3CC3)nn2)cc1 [MK412-4]	475	562	0.67			
Nc1ccc(C2=C3C=CC(NCc4cc(F)cc(F)c4)=[N+]3[B-](F)(F)n3c2ccc3-n2cc(C3CCCC3)nn2)cc1 [MK412-5]	476	567	0.68			
Nc1ccc(C2=C3C=CC(NCc4cc(F)cc(F)c4)=[N+]3[B-](F)(F)n3c2ccc3-n2cc(CC3CCCCC3)nn2)cc1 [MK412-8]	476	563	0.56			
CN(Cc1ccccc1)Cc1cn(-c2ccc3n2[B-](F)(F)[N+]2=C(NCc4cc(F)cc(F)c4)C=CC2=C3c2ccc(N)cc2)nn1 [MK412-18]	473	563	1.02			
Nc1ccc(C2=C3C=CC(NCc4cc(F)cc(F)c4)=[N+]3[B-](F)(F)n3c2ccc3-n2cc(CCc3ccccc3)nn2)cc1 [MK412-19]	475	564	0.92			
CC(C)Cc1cn(-c2ccc3n2[B-](F)(F)[N+]2=C(NCc4cc(F)cc(F)c4)C=CC2=C3c2ccc(N)cc2)nn1 [MK412-43]	476	564	0.86			
CCCc1cn(-c2ccc3n2[B-](F)(F)[N+]2=C(NCc4cc(F)cc(F)c4)C=CC2=C3c2ccc(N)cc2)nn1 [MK412-48]	474	563	1.55			
CCCCCC(O)c1cn(-c2ccc3n2[B-](F)(F)[N+]2=C(NCc4cc(F)cc(F)c4)C=CC2=C3c2ccc(N)cc2)nn1 (centres unmarked) [MK412-69]	476	563	1.98			
Nc1ccc(C2=C3C=CC(NCc4cc(F)cc(F)c4)=[N+]3[B-](F)(F)n3c2ccc3-n2cc(CO)nn2)cc1 [MK412-70]	470	562	1.89			
CCCC(C)c1cn(-c2ccc3n2[B-](F)(F)[N+]2=C(NCc4ccccc4C)C=CC2=C3c2ccc(NC(C)=O)cc2)nn1 (centres unmarked) [MKA101-3]				464	562	21.57
CCCC(C)c1cn(-c2ccc3n2[B-](F)(F)[N+]2=C(N4CC(C)OC(C)C4)C=CC2=C3c2ccc(NC(C)=O)cc2)nn1 (centres unmarked) [MKAC20-3]				466	583	2.40
CC(=O)Nc1ccc(C2=C3C=CC(N4CC(C)OC(C)C4)=[N+]3[B-](F)(F)n3c2ccc3-n2cc(C3CC3)nn2)cc1 (centres unmarked) [MKAC20-4]				466	585	3.64
CC(=O)Nc1ccc(C2=C3C=CC(N4CC(C)OC(C)C4)=[N+]3[B-](F)(F)n3c2ccc3-n2cc(C3CCCC3)nn2)cc1 (centres unmarked) [MKAC20-5]				467	580	3.47
CC(=O)Nc1ccc(C2=C3C=CC(N4CC(C)OC(C)C4)=[N+]3[B-](F)(F)n3c2ccc3-n2cc(CC3CCCCC3)nn2)cc1 (centres unmarked) [MKAC20-8]				466	583	4.98
CC(=O)Nc1ccc(C2=C3C=CC(N4CC(C)OC(C)C4)=[N+]3[B-](F)(F)n3c2ccc3-n2cc(CN(C)Cc3ccccc3)nn2)cc1 (centres unmarked) [MKAC20-18]				467	583	2.13
CC(=O)Nc1ccc(C2=C3C=CC(N4CC(C)OC(C)C4)=[N+]3[B-](F)(F)n3c2ccc3-n2cc(CCc3ccccc3)nn2)cc1 (centres unmarked) [MKAC20-19]				467	579	3.12
CC(=O)Nc1ccc(C2=C3C=CC(N4CC(C)OC(C)C4)=[N+]3[B-](F)(F)n3c2ccc3-n2cc(CC(C)C)nn2)cc1 (centres unmarked) [MKAC20-43]				467	586	1.55
CCCc1cn(-c2ccc3n2[B-](F)(F)[N+]2=C(N4CC(C)OC(C)C4)C=CC2=C3c2ccc(NC(C)=O)cc2)nn1 (centres unmarked) [MKAC20-48]				467	581	2.93
CCCCCC(O)c1cn(-c2ccc3n2[B-](F)(F)[N+]2=C(N4CC(C)OC(C)C4)C=CC2=C3c2ccc(NC(C)=O)cc2)nn1 (centres unmarked) [MKAC20-69]				469	590	2.23
CC(=O)Nc1ccc(C2=C3C=CC(N4CC(C)OC(C)C4)=[N+]3[B-](F)(F)n3c2ccc3-n2cc(CO)nn2)cc1 (centres unmarked) [MKAC20-70]				467	586	1.33

Structure (SMILES)	λmax Absorp. [1] [nm]	λmax Emission [1] [nm]	φ (quantum yield) [2] [%]	λmax Abs. (nm) [1] [nm]	λmax Em. (nm) [1] [nm]	φ (%) [2] [%]
CCCC(C)c1cn(-c2ccc3n2[B-](F)(F)[N+]2=C(N4CCc5ccccc5C4)C=CC2=C3c2ccc(NC(C)=O)cc2)nn1 (centres unmarked) [MKAC66-3]				469	583	2.40
CC(=O)Nc1ccc(C2=C3C=CC(N4CCc5ccccc5C4)=[N+]3[B-](F)(F)n3c2ccc3-n2cc(C3CC3)nn2)cc1 [MKAC66-4]				469	580	2.56
CC(=O)Nc1ccc(C2=C3C=CC(N4CCc5ccccc5C4)=[N+]3[B-](F)(F)n3c2ccc3-n2cc(C3CCCC3)nn2)cc1 [MKAC66-5]				470	583	1.96
CC(=O)Nc1ccc(C2=C3C=CC(N4CCc5ccccc5C4)=[N+]3[B-](F)(F)n3c2ccc3-n2cc(CC3CCCCC3)nn2)cc1 [MKAC66-8]				469	578	2.20
CC(=O)Nc1ccc(C2=C3C=CC(N4CCc5ccccc5C4)=[N+]3[B-](F)(F)n3c2ccc3-n2cc(CN(C)Cc3ccccc3)nn2)cc1 [MKAC66-18]				468	585	1.56
CC(=O)Nc1ccc(C2=C3C=CC(N4CCc5ccccc5C4)=[N+]3[B-](F)(F)n3c2ccc3-n2cc(CCc3ccccc3)nn2)cc1 [MKAC66-19]				470	580	1.76
CC(=O)Nc1ccc(C2=C3C=CC(N4CCc5ccccc5C4)=[N+]3[B-](F)(F)n3c2ccc3-n2cc(CC(C)C)nn2)cc1 [MKAC66-43]				469	581	1.92
CCCc1cn(-c2ccc3n2[B-](F)(F)[N+]2=C(N4CCc5ccccc5C4)C=CC2=C3c2ccc(NC(C)=O)cc2)nn1 [MKAC66-48]				469	582	2.14
CCCCCC(O)c1cn(-c2ccc3n2[B-](F)(F)[N+]2=C(N4CCc5ccccc5C4)C=CC2=C3c2ccc(NC(C)=O)cc2)nn1 (centres unmarked) [MKAC66-69]				469	579	1.88
CC(=O)Nc1ccc(C2=C3C=CC(N4CCc5ccccc5C4)=[N+]3[B-](F)(F)n3c2ccc3-n2cc(CO)nn2)cc1 [MKAC66-70]				468	582	1.44
CC(=O)Nc1ccc(C2=C3C=CC(NCc4ccccc4C)=[N+]3[B-](F)(F)n3c2ccc3-n2cc(C3CC3)nn2)cc1 [MKAC101-4]				465	563	23.84
CC(=O)Nc1ccc(C2=C3C=CC(NCc4ccccc4C)=[N+]3[B-](F)(F)n3c2ccc3-n2cc(C3CCCC3)nn2)cc1 [MKAC101-5]				466	563	23.69
CC(=O)Nc1ccc(C2=C3C=CC(NCc4ccccc4C)=[N+]3[B-](F)(F)n3c2ccc3-n2cc(CC3CCCCC3)nn2)cc1 [MKAC101-8]				465	563	21.14
CC(=O)Nc1ccc(C2=C3C=CC(NCc4ccccc4C)=[N+]3[B-](F)(F)n3c2ccc3-n2cc(CN(C)Cc3ccccc3)nn2)cc1 [MKAC101-18]				465		13.14
CC(=O)Nc1ccc(C2=C3C=CC(NCc4ccccc4C)=[N+]3[B-](F)(F)n3c2ccc3-n2cc(CCc3ccccc3)nn2)cc1 [MKAC101-19]				464	560	23.26
CC(=O)Nc1ccc(C2=C3C=CC(NCc4ccccc4C)=[N+]3[B-](F)(F)n3c2ccc3-n2cc(CC(C)C)nn2)cc1 [MKAC101-43]				465	562	20.12
CCCc1cn(-c2ccc3n2[B-](F)(F)[N+]2=C(NCc4ccccc4C)C=CC2=C3c2ccc(NC(C)=O)cc2)nn1 [MKAC101-48]				465	562	17.25
CCCCCC(O)c1cn(-c2ccc3n2[B-](F)(F)[N+]2=C(NCc4ccccc4C)C=CC2=C3c2ccc(NC(C)=O)cc2)nn1 (centres unmarked) [MKAC101-69]				461	562	24.08
CC(=O)Nc1ccc(C2=C3C=CC(NCc4ccccc4C)=[N+]3[B-](F)(F)n3c2ccc3-n2cc(CO)nn2)cc1 [MKAC101-70]				465	561	18.11
CCCC(C)c1cn(-c2ccc3n2[B-](F)(F)[N+]2=C(NCc4ccccc4OCC)C=CC2=C3c2ccc(NC(C)=O)cc2)nn1 (centres unmarked) [MKAC103-3]				465	561	23.42
CCOc1ccccc1CNC1=[N+]2C(=C(c3ccc(NC(C)=O)cc3)c3ccc(-n4cc(C5CC5)nn4)n3[B-]2(F)F)C=C1 [MKAC103-4]				464	565	24.86
